Measured values: patent US12012390B2, “Flavone compounds for the treatment and prophylaxis of hepatitis B virus disease” (priority 2018, dated 2024)

Test system: cccDNA in HepDES19 cells
Experiment: cccDNA Southern Blot assay
Assay type: cell-based, HBV
Conditions: 5 days' compound treatment, FIG. 1
Experimental: HepDES19 cells were seeded at 4×10^6 cells per T150 in the culture medium (Dulbecco's Modified Eagle Medium: Nutrient Mixture F-12 [DMEM-F12, Gibco Cat. 11320-82], 10% Fetal Bovine Serum [FBS, Clontech Cat. 631101], 0.1 mM Non-Essential Amino Acids Solution [NEAA, Gibco Cat. 11140-050], 50 μg/mL Penicillin-Streptomycin [PS, Invitrogen Cat. 15140-163], 500 μg/mL Geneticin [G418, Invitrogen Cat. 10131-027]) in the absence of Tet for 8 days. These cells were seeded at the density of 1×10^6 cells per well in 6-well plate. At 24 hrs after seeding, serial dilutions of compounds made with DMSO (Sigma, Cat. D2650) were further diluted with the same culture medium as described above before they were added to the cells to reach desired final compound concentrations and 1% DMSO concentration. After 5 days' compound treatment, the cells growing in one well from 6-well plate were re-suspended with 500 μL re-suspension buffer (50 mM tris[hydroxymethyl]amino methane pH 7.5), 10 mM ethylenediaminetetraacetic acid (EDTA), 50 μg/mL RNase A [Qiagen, Cat. 158922]. 500 μL of 1.2% sodium dodecyl sulfate (SDS) was then added into the re-suspended cells to lyse the cells. After 15 minutes' incubation, 700 μL precipitation buffer (3M cesium chloride, 1M potassium acetate, 0.67M acetic acid) was added and the lysate was incubated at 4° C. for 2 h. […]

O=C(O)C1CC(OCCOc2ccc(-c3cc(=O)c4cccc(Cl)c4o3)cc2)C1 (stereo not shown) [Example 1, 3-[2-[4-(8-chloro-4-oxo-chromen-2-yl)phenoxy]ethoxy]cyclobutanecarboxylic acid]
cccDNA level in cccDNA Southern Blot assay: dose-dependently reduced cccDNA level
